These results are taken from patent US10793542B2, “Hetroarylamine compounds for modulating the hedgehog pathway and preparing method and uses thereof” (DEVELOPMENT CENTER FOR BIOTECHNOLOGY, priority 2016, dated 2020).

Holding throughout (format): cell-based
One test addresses T1, Smo D473H mutant (Homo sapiens, UniProt Q99835, D473H).
T1 construct: expressed in transfected cells; host or cells: C3H10T1/2 cells (ATCC CCL-226), transient transfection with pLPCX-SMO-D473H
Briefly: Reporter assay of C3H10T1/2-Gli-Luc cells transfected with Smo D473H mutant, without SAG. The following applies: C3H10T1/2 cells transfected with pLPCX-SMO-D473H, no SAG, 48 hr; read-out: Inhibition of C3H10T1/2-Gli-Luc-Smo-D473H [IC50. In short, it runs like this:
(§1)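 C3H10T1/2-Gli-Luc cells transiently transfected with wild-type or D473H SMO, replated in 0.5% FBS RPMI and incubated with compounds 48 h at 37 °C without SAG. Dual-luciferase, firefly normalized to Renilla; scaled to DMSO (100%) and 10 μM ALLO-2 (0%); IC50 by nonlinear regression.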

For test [1], the system named is hedgehog pathway (pGL3-7xGli-Luciferase reporter in C3H10T1/2 cells). Briefly: Transient transfection of C3H10T1/2 and Gli-Luc reporter assay with SAG stimulation. As to conditions: Mus musculus, C3H 10T1/2, SAG 20 nM, 48 hr, read-out: Inhibition of Gli-Luc expression [IC50. A digest of the protocol:
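C3H10T1/2 cells were transiently transfected with a 7xGli-firefly luciferase reporter and a TK-Renilla control, then treated with serially diluted compounds plus 20 nM SAG in 0.5% FBS for 48 h at 37 °C. Firefly signal was normalized to Renilla and scaled between DMSO with SAG (100%) and without SAG (0%). IC50 was obtained by nonlinear regression.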
On the technique in general: Reporter assays use an easily measured gene product as a stand-in for the process of interest.

In a further test the target is T2, Smo wild type (Homo sapiens, UniProt Q99835).
T2 construct: expressed in transfected cells; host or cells: C3H10T1/2 cells (ATCC CCL-226), transient transfection with pLPCX-SMO
As to the kind of experiment: Reporter assay of C3H10T1/2-Gli-Luc cells transfected with wild-type Smo, without SAG. As to conditions: C3H10T1/2 cells transfected with pLPCX-SMO, no SAG, 48 hr; read-out: Inhibition of C3H10T1/2-Gli-Luc-Smo-WT [IC50. A digest of the protocol:
as §1

Each structure is given as a SMILES string. Some results are limits rather than exact numbers.

T2 sequence (Q99835 28-787): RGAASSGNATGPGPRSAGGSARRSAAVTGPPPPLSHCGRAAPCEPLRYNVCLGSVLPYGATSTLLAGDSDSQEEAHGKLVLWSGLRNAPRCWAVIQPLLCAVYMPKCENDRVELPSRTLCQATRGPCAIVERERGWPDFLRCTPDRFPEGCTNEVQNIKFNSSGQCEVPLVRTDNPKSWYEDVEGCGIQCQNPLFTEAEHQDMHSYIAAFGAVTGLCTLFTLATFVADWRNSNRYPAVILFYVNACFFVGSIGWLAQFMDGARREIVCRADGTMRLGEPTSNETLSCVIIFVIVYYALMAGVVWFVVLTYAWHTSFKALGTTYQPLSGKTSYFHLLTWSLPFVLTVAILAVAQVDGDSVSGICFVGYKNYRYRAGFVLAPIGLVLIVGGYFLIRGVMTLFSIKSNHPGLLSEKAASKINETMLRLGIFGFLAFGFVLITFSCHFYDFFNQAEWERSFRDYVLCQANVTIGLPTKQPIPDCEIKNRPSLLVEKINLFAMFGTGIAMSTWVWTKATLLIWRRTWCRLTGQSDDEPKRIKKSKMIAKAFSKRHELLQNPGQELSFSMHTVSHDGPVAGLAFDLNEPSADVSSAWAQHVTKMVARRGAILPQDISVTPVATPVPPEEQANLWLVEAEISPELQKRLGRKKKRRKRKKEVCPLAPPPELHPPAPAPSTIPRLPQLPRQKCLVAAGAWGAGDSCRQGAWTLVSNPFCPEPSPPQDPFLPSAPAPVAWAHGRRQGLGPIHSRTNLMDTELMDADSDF
T1 sequence (Q99835 28-787 D473H): as the sequence (Q99835 28-787) above, with D446H counted along it

On to `COc1cnc(Nc2ccc(C(=O)Nc3cc(CN4CCN(C)CC4)ccc3C)cc2)nc1-c1ccc(C#N)cc1` [Compound 51, 4-[4-(4-Cyano-phenyl)-5-methoxy-pyrimidin-2-ylamino]-N-[2-methyl-5-(4-methyl-piperazin-1-ylmethyl)-phenyl]-benzamide], for which the IC50 at Smo D473H mutant is 100 to 1000 nM; in test [1], less than 100 nM; at Smo wild type it was less than 100 nM.

On to `COc1cccc(OC)c1NC(=O)c1ccc(Nc2ncc(SC)c(-c3ccc(OC(F)(F)F)cc3)n2)cc1` [Compound 22, N-(2,6-Dimethoxy-phenyl)-4-[5-methylsulfanyl-4-(4-trifluoromethoxy-phenyl)-pyrimidin-2-ylamino]-benzamide], for which the IC50 on Smo D473H mutant was 100 to 1000 nM; in test [1], less than 100 nM; on Smo wild type, less than 100 nM.

As to `CSc1cnc(Nc2ccc(C(=O)Nc3cccc(CN4CCOCC4)c3)cc2)nc1-c1ccc(F)cc1` [Compound 43, 4-[4-(4-Fluoro-phenyl)-5-methylsulfanyl-pyrimidin-2-ylamino]-N-(3-morpholin-4-ylmethyl-phenyl)-benzamide], the results for the IC50 (at Smo D473H mutant; in test [1]; on Smo wild type) were 100 to 1000 nM, less than 100 nM and less than 100 nM, respectively.

As for `CCN(CC)Cc1cccc(NC(=O)c2ccc(Nc3ncc(SC)c(-c4ccc(OC(F)(F)F)cc4)n3)c(F)c2)c1` [Compound 56, N-(3-Diethylaminomethyl-phenyl)-3-fluoro-4-[5-methylsulfanyl-4-(4-trifluoromethoxy-phenyl)-pyrimidin-2-ylamino]-benzamide], the values for the IC50 (on Smo D473H mutant; in test [1]; on Smo wild type) were 100 to 1000 nM, less than 100 nM and less than 100 nM, respectively.

In the case of `CSc1cnc(Nc2ccc(C(=O)Nc3cc(CN4CCOCC4)ccc3C)cc2)nc1-c1ccccc1` [Compound 20, N-(2-Methyl-5-morpholin-4-ylmethyl-phenyl)-4-(5-methylsulfanyl-4-phenyl-pyrimidin-2-ylamino)-benzamide], the results for the IC50 (on Smo D473H mutant; in test [1]; on Smo wild type) were 100 to 1000 nM, less than 100 nM and less than 100 nM, respectively.

With `CCOc1cnc(Nc2ccc(C(=O)Nc3cc(CN4CCN(C)CC4)ccc3C)cc2)nc1-c1ccc(F)cc1` [Compound 76, 4-[5-Ethoxy-4-(4-fluoro-phenyl)-pyrimidin-2-ylamino]-N-[2-methyl-5-(4-methyl-piperazin-1-ylmethyl)-phenyl]-benzamide], the IC50 (on Smo D473H mutant; in test [1]; at Smo wild type) was less than 100 nM each time.

As to `CCOc1cnc(Nc2ccc(C(=O)Nc3cc(CN4CCOCC4)ccc3C)cc2)nc1-c1ccc(F)cc1` [Compound 75, 4-[5-Ethoxy-4-(4-fluoro-phenyl)-pyrimidin-2-ylamino]-N-(2-methyl-5-morpholin-4-ylmethyl-phenyl)-benzamide], the values for the IC50 (at Smo D473H mutant; in test [1]; at Smo wild type) were 100 to 1000 nM, less than 100 nM and less than 100 nM, respectively.

Consider `COc1cccc(C)c1NC(=O)c1ccc(Nc2ncc(SC)c(-c3cccnc3F)n2)c(F)c1` [Compound 15, 3-Fluoro-4-[4-(2-fluoro-pyridin-3-yl)-5-methylsulfanyl-pyrimidin-2-ylamino]-N-(2-methoxy-6-methyl-phenyl)-benzamide], for which the IC50 at Smo D473H mutant was 100 to 1000 nM; in test [1] it was less than 100 nM; on Smo wild type, less than 100 nM.

For `COc1cccc(OC)c1NC(=O)c1ccc(Nc2ncc(SC)c(-c3cccnc3F)n2)cc1` [Compound 9, N-(2,6-Dimethoxy-phenyl)-4-[4-(2-fluoro-pyridin-3-yl)-5-methylsulfanyl-pyrimidin-2-ylamino]-benzamide], the values for the IC50 (on Smo D473H mutant; in test [1]; on Smo wild type) were 100 to 1000 nM, less than 100 nM and less than 100 nM, respectively.

As to `CSc1cnc(Nc2ccc(C(=O)Nc3ccccc3C)cc2)nc1-c1ccccc1` [Compound 19, 4-(5-Methylsulfanyl-4-phenyl-pyrimidin-2-ylamino)-N-o-tolyl-benzamide], the IC50 (on Smo D473H mutant; in test [1]; at Smo wild type) was 100 to 1000 nM throughout.

Take `CSc1cnc(Nc2ccc(C(=O)Nc3cc(CN4CCOCC4)ccc3C)cc2)nc1-c1ccncc1` [Compound 26, N-(2-Methyl-5-morpholin-4-ylmethyl-phenyl)-4-(5-methylsulfanyl-4-pyridin-4-yl-pyrimidin-2-ylamino)-benzamide]: the figures for the IC50 (at Smo D473H mutant; in test [1]; on Smo wild type) were 100 to 1000 nM, less than 100 nM and less than 100 nM, respectively.
